Reference: patent US8551984B2, “Aminopyrimidines as SYK inhibitors” (Merck Sharp & Dohme Corp., priority 2009, dated 2013)

target: rhSYK (Homo sapiens, UniProt P43405); assay: biochemical

SMILES	IC50
Cc1cc(Nc2nccc(C(F)(F)F)n2)cc(-c2cnc([C@]3(O)CC[C@@H](C(=O)N(CCO)CCO)CC3)s2)c1 [Example 119-50]	< 100 nM
Cc1cc(Nc2nccc(C(F)(F)F)n2)cc(-c2cnc([C@]3(O)CC[C@@H](C(=O)Nc4ccc(O)cc4)CC3)s2)c1 [Example 119-55]	< 100 nM
Cc1cc(Nc2nccc(C(F)(F)F)n2)cc(-c2cnc(C3(O)CCC(C(=O)N4CCC(C#N)CC4)CC3)s2)c1 (centres unmarked) [Example 119-59]	< 100 nM
Cc1cc(Nc2nccc(C(F)(F)F)n2)cc(-c2cnc(C3(O)CCC(C(=O)N4CCCC(C#N)C4)CC3)s2)c1 (centres unmarked) [Example 119-60]	< 100 nM
Cc1cc(Nc2nccc(C(F)(F)F)n2)cc(-c2cnc([C@]3(O)CC[C@@H](C(=O)Nc4ccc(F)cc4)CC3)s2)c1 [Example 119-62]	< 100 nM
CC(=O)N(C)CCNC(=O)C1CCC(O)(c2ncc(-c3cc(C)cc(Nc4nccc(C(F)(F)F)n4)c3)s2)CC1 (centres unmarked) [Example 119-68]	< 100 nM
Cc1cc(Nc2nccc(C(F)(F)F)n2)cc(-c2cnc([C@]3(O)CC[C@@H](C(=O)Nc4ccc(O)cc4O)CC3)s2)c1 [Example 119-76]	< 100 nM
CC(=O)NCCCCNC(=O)[C@H]1CC[C@](O)(c2ncc(-c3cc(C)cc(Nc4nccc(C(F)(F)F)n4)c3)s2)CC1 [Example 119-81]	< 100 nM
Cc1cc(Nc2nccc(C(F)(F)F)n2)cc(-c2cnc([C@]3(O)CC[C@@H](C(=O)Nc4ccc5[nH]ccc5c4)CC3)s2)c1 [Example 119-82]	< 100 nM
Cc1cc(Nc2nccc(C(F)(F)F)n2)cc(-c2cnc([C@]3(O)CC[C@@H](C(=O)NCCCN4CCCC4=O)CC3)s2)c1 [Example 119-88]	< 100 nM
Cc1cc(Nc2nccc(C(F)(F)F)n2)cc(-c2cnc(C3(O)CCC(C(=O)NC4CCC(C(N)=O)CC4)CC3)s2)c1 (centres unmarked) [Example 119-90]	< 100 nM
Cc1cc(Nc2nccc(C(F)(F)F)n2)cc(-c2cnc(C3(O)CCC(C(=O)NC4CCC(C(=O)O)CC4)CC3)s2)c1 (centres unmarked) [Example 119-91]	< 100 nM
COC(=O)N1CCN(C(=O)C2CCC(O)(c3ncc(-c4cc(C)cc(Nc5nccc(C(F)(F)F)n5)c4)s3)CC2)CC1 (centres unmarked) [Example 119-92]	< 100 nM
Cc1cc(Nc2nccc(C(F)(F)F)n2)cc(-c2cnc(C3(O)CCC(C(=O)NC4CCCc5ccccc54)CC3)s2)c1 (centres unmarked) [Example 119-93]	< 100 nM
Cc1cc(Nc2nccc(C(F)(F)F)n2)cc(-c2cnc(C3(O)CCC(C(=O)NC4c5ccccc5CC4O)CC3)s2)c1 (centres unmarked) [Example 119-95]	< 100 nM
Cc1cc(Nc2nccc(C(F)(F)F)n2)cc(-c2cnc([C@]3(O)CC[C@@H](C(=O)N4CCC(Cc5ccccc5)CC4)CC3)s2)c1 [Example 119-102]	100 to 1000 nM
Cc1cc(Nc2nccc(C(F)(F)F)n2)cc(-c2cnc([C@]3(O)CC[C@@H](C(=O)NCc4ccc5c(c4)NC(=O)CC5)CC3)s2)c1 [Example 119-103]	< 100 nM
Cc1cc(Nc2nccc(C(F)(F)F)n2)cc(-c2cnc(C3(O)CCC(C(=O)NCc4ccc(CC5COC(=O)N5)cc4)CC3)s2)c1 (centres unmarked) [Example 119-106]	< 100 nM
Cc1cc(Nc2nccc(C(C)C)n2)cc(-c2cnc(C3(O)CCC(C(N)=O)C(C)(C)C3)s2)c1 (centres unmarked) [Example 119-119]	< 100 nM
Cc1cc(Nc2nccc(C(C)O)n2)cc(-c2cnc(C3(O)CCC(C(N)=O)C(C)(C)C3)s2)c1 (centres unmarked) [Example 119-120]	< 100 nM
Cc1cc(Nc2nccc(C(C)F)n2)cc(-c2cnc(C3(O)CCC(C(N)=O)C(C)(C)C3)s2)c1 (centres unmarked) [Example 119-122]	< 100 nM
Cc1cc(Nc2nccc(C(C)(C)C)n2)cc(-c2cnc(C3(O)CCC(C(N)=O)C(C)(C)C3)s2)c1 (centres unmarked) [Example 119-125]	< 100 nM
Cc1cc(Nc2nccc(C(C)(C)O)n2)cc(-c2cnc(C3(O)CCC(C(N)=O)C(C)(C)C3)s2)c1 (centres unmarked) [Example 119-127]	< 100 nM
Cc1cc(Nc2nccc(C(F)(F)F)n2)cc(-c2cnc([C@]3(O)CC[C@@H](C(N)=O)C(C)(C)C3)s2)c1 [Example 119-131]	< 100 nM
Cc1cc(Nc2nccc(C(F)(F)F)n2)cc(-c2cnc([C@]3(O)CC[C@@H](C(=O)N4CCc5cc(O)c(O)cc5C4)CC3)s2)c1 [Example 119-138]	< 100 nM
COc1cccc(N2CCN(C(=O)C3CCC(O)(c4ncc(-c5cc(C)cc(Nc6nccc(C(F)(F)F)n6)c5)s4)CC3)CC2)c1 (centres unmarked) [Example 119-139]	< 100 nM
COCc1cc(Nc2nccc(C(F)(F)F)n2)cc(-c2cnc([C@@]3(O)CC[C@H](C(N)=O)C(C)(C)C3)s2)c1 [Example 119-143]	< 100 nM

The next lines start with the values.

IC50	SMILES
< 100 nM	Cc1cc(Nc2nccc(C(F)(F)F)n2)cc(-c2cnc([C@]3(O)CC[C@@H](C(=O)NCc4ccccc4)CC3)s2)c1 [Example 119-51]
< 100 nM	Cc1cc(Nc2nccc(C(F)(F)F)n2)cc(-c2cnc([C@]3(O)CC[C@@H](C(=O)NCc4ccccn4)CC3)s2)c1 [Example 119-54]
< 100 nM	Cc1cc(Nc2nccc(C(F)(F)F)n2)cc(-c2cnc([C@]3(O)CC[C@@H](C(=O)Nc4ccccc4O)CC3)s2)c1 [Example 119-56]
< 100 nM	Cc1cc(Nc2nccc(C(F)(F)F)n2)cc(-c2cnc([C@]3(O)CC[C@@H](C(=O)NCc4cccs4)CC3)s2)c1 [Example 119-63]
< 100 nM	Cc1cc(Nc2nccc(C(F)(F)F)n2)cc(-c2cnc(C3(O)CCC(C(=O)N(C)Cc4ccccc4)CC3)s2)c1 (centres unmarked) [Example 119-69]
< 100 nM	Cc1cc(Nc2nccc(C(F)(F)F)n2)cc(-c2cnc(C3(O)CCC(C(=O)NCCc4ccccc4)CC3)s2)c1 (centres unmarked) [Example 119-70]
< 100 nM	Cc1cc(Nc2nccc(C(F)(F)F)n2)cc(-c2cnc([C@]3(O)CC[C@@H](C(=O)NCc4cccc(O)c4)CC3)s2)c1 [Example 119-71]
< 100 nM	Cc1cc(Nc2nccc(C(F)(F)F)n2)cc(-c2cnc([C@]3(O)CC[C@@H](C(=O)Nc4ccc(CO)cc4)CC3)s2)c1 [Example 119-72]
< 100 nM	Cc1cc(Nc2nccc(C(F)(F)F)n2)cc(-c2cnc([C@]3(O)CC[C@@H](C(=O)Nc4cccc(CO)c4)CC3)s2)c1 [Example 119-73]
< 100 nM	Cc1cc(Nc2nccc(C(F)(F)F)n2)cc(-c2cnc([C@]3(O)CC[C@@H](C(=O)NCc4ccccc4O)CC3)s2)c1 [Example 119-74]
< 100 nM	Cc1cc(Nc2nccc(C(F)(F)F)n2)cc(-c2cnc([C@]3(O)CC[C@@H](C(=O)NCc4ccc(O)cc4)CC3)s2)c1 [Example 119-75]
< 100 nM	Cc1cc(Nc2nccc(C(F)(F)F)n2)cc(-c2cnc(C3(O)CCC(C(=O)NCc4ccc(F)cc4)CC3)s2)c1 (centres unmarked) [Example 119-77]
< 100 nM	Cc1cc(Nc2nccc(C(F)(F)F)n2)cc(-c2cnc([C@]3(O)CC[C@@H](C(=O)NCCCc4ccccc4)CC3)s2)c1 [Example 119-83]
< 100 nM	Cc1cc(Nc2nccc(C(F)(F)F)n2)cc(-c2cnc(C3(O)CCC(C(=O)NCCOc4ccccc4)CC3)s2)c1 (centres unmarked) [Example 119-84]
< 100 nM	Cc1cc(Nc2nccc(C(F)(F)F)n2)cc(-c2cnc([C@]3(O)CC[C@@H](C(=O)NCc4ccc(O)c(O)c4)CC3)s2)c1 [Example 119-86]
< 100 nM	Cc1cc(Nc2nccc(C(F)(F)F)n2)cc(-c2cnc([C@]3(O)CC[C@@H](C(=O)NCc4ccc(Cl)cc4)CC3)s2)c1 [Example 119-87]
< 100 nM	Cc1cc(Nc2nccc(C(F)(F)F)n2)cc(-c2cnc([C@]3(O)CC[C@@H](C(=O)NCc4cn5ccccc5n4)CC3)s2)c1 [Example 119-94]
< 100 nM	Cc1cc(Nc2nccc(C(F)(F)F)n2)cc(-c2cnc([C@]3(O)CC[C@@H](C(=O)NCc4cccc5c4C(=O)NC5)CC3)s2)c1 [Example 119-96]

IC50	SMILES
< 100 nM	Cc1cc(Nc2nccc(C(F)(F)F)n2)cc(-c2cnc([C@]3(O)CC[C@@H](C(=O)NCc4ccc5c(c4)C(=O)NC5)CC3)s2)c1 [Example 119-97]
< 100 nM	Cc1cc(Nc2nccc(C(F)(F)F)n2)cc(-c2cnc([C@]3(O)CC[C@@H](C(=O)NCc4ccc5c(c4)CNC5=O)CC3)s2)c1 [Example 119-99]
< 100 nM	Cc1cc(Nc2nccc(C(F)(F)F)n2)cc(-c2cnc([C@]3(O)CC[C@@H](C(=O)NCc4ccc(C(F)(F)F)cc4)CC3)s2)c1 [Example 119-100]
< 100 nM	Cc1cc(Nc2nccc(C(F)(F)F)n2)cc(-c2cnc([C@]3(O)CC[C@@H](C(=O)NCc4ccc(-n5cc(CO)cn5)cc4)CC3)s2)c1 [Example 119-105]
< 100 nM	Cc1cc(Nc2nccc(C)n2)cc(-c2cnc(C3(O)CCC(C(=O)NCC#N)C(C)C3)s2)c1 (centres unmarked) [Example 119-108]
< 100 nM	Cc1cc(Nc2nccc(C(C)(C)C)n2)cc(-c2cnc(C3(O)CCC(C(N)=O)C(C)C3)s2)c1 (centres unmarked) [Example 119-109]
< 100 nM	Cc1cc(Nc2nccc(OC(C)C)n2)cc(-c2cnc(C3(O)CCC(C(N)=O)C(C)C3)s2)c1 (centres unmarked) [Example 119-110]
< 100 nM	Cc1cc(Nc2nccc(C(C)C)n2)cc(-c2cnc(C3(O)CCC(C(=O)NCC#N)C(C)C3)s2)c1 (centres unmarked) [Example 119-113]
< 100 nM	Cc1cc(Nc2nccc(C)n2)cc(-c2cnc(C3(O)CCC(C(=O)NCc4cccnc4)C(C)C3)s2)c1 (centres unmarked) [Example 119-114]
< 100 nM	Cc1cc(Nc2nccc(C(C)C)n2)cc(-c2cnc(C3(O)CCC(C(=O)NCc4cccnc4)C(C)C3)s2)c1 (centres unmarked) [Example 119-115]
< 100 nM	COc1ccnc(Nc2cc(C)cc(-c3cnc(C4(O)CCC(C(N)=O)C(C)(C)C4)s3)c2)n1 (centres unmarked) [Example 119-117]
< 100 nM	Cc1cc(Nc2nccc(C3CC3)n2)cc(-c2cnc(C3(O)CCC(C(N)=O)C(C)(C)C3)s2)c1 (centres unmarked) [Example 119-118]
< 100 nM	COc1ccnc(Nc2cc(C)cc(-c3cnc([C@@]4(O)CC[C@H](C(=O)NCC#N)C(C)(C)C4)s3)c2)n1 [Example 119-133]
< 100 nM	COc1ccnc(Nc2cc(C)cc(-c3cnc([C@@]4(O)CC[C@H](C(=O)NCc5cccnc5)C(C)(C)C4)s3)c2)n1 [Example 119-134]
< 100 nM	Cc1cc(Nc2nccc(C)n2)cc(-c2cnc([C@@]3(O)CC[C@H](C(=O)NCCCN4CCCC4=O)C(C)(C)C3)s2)c1 [Example 119-135]
< 100 nM	Cc1cc(Nc2nccc(C(F)(F)F)n2)cc(-c2cnc([C@@]3(O)CC[C@H](C(=O)Nc4cccnc4)C(C)(C)C3)s2)c1 [Example 119-136]
< 100 nM	COCc1cc(Nc2nccc(C(F)(F)F)n2)cc(-c2cnc(C3(O)CCC(C(N)=O)C(C)C3)s2)c1 (centres unmarked) [Example 119-142]
